{"source": "ChEMBL document CHEMBL2010645", "about": "“N-Caffeoyl serotonin as selective COX-2 inhibitor” (Bioorg Med Chem Lett, 2012)", "key": {"[1]": {"target": "T1, Prostaglandin G/H synthase 1 (Homo sapiens, UniProt P23219)", "T1 sequence (P23219 whole entry)": "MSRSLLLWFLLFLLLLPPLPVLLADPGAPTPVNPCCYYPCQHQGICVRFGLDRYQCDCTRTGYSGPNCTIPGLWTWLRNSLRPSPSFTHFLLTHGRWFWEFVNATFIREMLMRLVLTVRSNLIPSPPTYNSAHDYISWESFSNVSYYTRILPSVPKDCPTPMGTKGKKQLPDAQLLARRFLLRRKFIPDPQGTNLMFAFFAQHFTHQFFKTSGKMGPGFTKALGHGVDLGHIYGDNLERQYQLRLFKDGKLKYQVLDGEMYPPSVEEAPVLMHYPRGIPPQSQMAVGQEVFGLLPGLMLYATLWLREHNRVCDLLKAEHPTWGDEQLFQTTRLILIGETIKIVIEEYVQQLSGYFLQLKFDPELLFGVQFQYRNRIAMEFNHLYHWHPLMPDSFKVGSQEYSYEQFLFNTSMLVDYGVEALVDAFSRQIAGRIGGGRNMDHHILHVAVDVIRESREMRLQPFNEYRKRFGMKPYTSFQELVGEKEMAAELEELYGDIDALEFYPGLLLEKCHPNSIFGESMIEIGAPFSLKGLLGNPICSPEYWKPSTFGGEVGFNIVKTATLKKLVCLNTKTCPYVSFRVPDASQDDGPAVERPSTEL", "test": "Inhibition of COX1 at 400 uM after 5 mins by spectrophotometric analysis"}, "[2]": {"target": "T2, Prostaglandin G/H synthase 2 (Homo sapiens) (UniProt P35354)", "T2 sequence (whole entry)": "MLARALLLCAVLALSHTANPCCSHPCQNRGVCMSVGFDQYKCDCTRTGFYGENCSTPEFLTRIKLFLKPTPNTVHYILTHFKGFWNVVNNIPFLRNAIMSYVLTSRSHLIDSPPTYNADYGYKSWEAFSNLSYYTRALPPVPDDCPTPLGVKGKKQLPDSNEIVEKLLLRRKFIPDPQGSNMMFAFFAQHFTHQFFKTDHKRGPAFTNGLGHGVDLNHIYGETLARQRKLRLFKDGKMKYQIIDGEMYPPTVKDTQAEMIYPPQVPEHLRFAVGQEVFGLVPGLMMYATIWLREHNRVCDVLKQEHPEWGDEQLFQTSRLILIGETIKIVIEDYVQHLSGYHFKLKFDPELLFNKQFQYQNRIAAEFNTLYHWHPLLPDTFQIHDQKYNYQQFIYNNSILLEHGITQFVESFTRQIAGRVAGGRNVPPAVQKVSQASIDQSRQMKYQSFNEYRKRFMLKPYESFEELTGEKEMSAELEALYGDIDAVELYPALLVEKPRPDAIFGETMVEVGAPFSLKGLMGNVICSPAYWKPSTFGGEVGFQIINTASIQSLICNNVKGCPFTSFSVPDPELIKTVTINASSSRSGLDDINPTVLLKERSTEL", "test": "Inhibition of COX2 at 400 uM after 5 mins by spectrophotometric analysis"}, "[3]": {"target": "T1, Prostaglandin G/H synthase 1", "test": "Inhibition of COX1 after 5 mins by spectrophotometric analysis"}, "[4]": {"target": "T3, Prostaglandin G/H synthase 2 (Homo sapiens, UniProt P35354)", "T3 sequence (P35354 whole entry)": "T2 sequence (whole entry)", "test": "Inhibition of COX2 after 5 mins by spectrophotometric analysis"}, "[5]": {"target": "T3, Prostaglandin G/H synthase 2", "test": "Uncompetitive inhibition of COX2 by Lineweaver-Burk plot analysis"}}}
{"molecule": "O=C(/C=C/c1ccc(O)c(O)c1)NCCc1c[nH]c2ccc(O)cc12", "note": "[N-CAFFEOYLSEROTONIN]", "values": [{"measurement": "inhibition", "setting": "[1]", "result": 40.6, "unit": "%"}, {"measurement": "inhibition", "setting": "[2]", "result": 70.5, "unit": "%"}, {"measurement": "IC50", "setting": "[3]", "result": "> 400", "unit": "µM"}, {"measurement": "IC50", "setting": "[4]", "result": 42.5, "unit": "µM"}, {"measurement": "Ki", "setting": "[5]", "result": 65.5, "unit": "µM"}]}
{"molecule": "COc1cc(/C=C/C(=O)NCCc2c[nH]c3ccc(O)cc23)ccc1O", "values": [{"measurement": "inhibition", "setting": "[1]", "result": 2.7, "unit": "%"}, {"measurement": "inhibition", "setting": "[2]", "result": 18.8, "unit": "%"}]}
{"molecule": "CC(=O)Oc1ccccc1C(=O)O", "values": [{"measurement": "inhibition", "setting": "[2]", "result": 19.3, "unit": "%"}]}
{"molecule": "O=C(/C=C/c1ccc(O)cc1)NCCc1c[nH]c2ccc(O)cc12", "values": [{"measurement": "inhibition", "setting": "[1]", "result": 12.5, "unit": "%"}, {"measurement": "inhibition", "setting": "[2]", "result": 13.9, "unit": "%"}]}
{"molecule": "COc1ccc(/C=C/C(=O)NCCc2c[nH]c3ccc(O)cc23)cc1OC", "values": [{"measurement": "inhibition", "setting": "[1]", "result": 29.9, "unit": "%"}, {"measurement": "inhibition", "setting": "[2]", "result": 18.2, "unit": "%"}]}
{"molecule": "NCCc1c[nH]c2ccc(O)cc12", "note": "[SEROTONIN]", "values": [{"measurement": "IC50", "setting": "[3]", "result": "> 400", "unit": "µM"}, {"measurement": "IC50", "setting": "[4]", "result": "> 400", "unit": "µM"}]}
{"molecule": "COc1cc(/C=C/C(=O)NCCc2c[nH]c3ccc(O)cc23)cc(OC)c1O", "note": "[N-SINAPOYL SEROTONIN]", "values": [{"measurement": "inhibition", "setting": "[1]", "result": 44.9, "unit": "%"}, {"measurement": "inhibition", "setting": "[2]", "result": 27.2, "unit": "%"}, {"measurement": "IC50", "setting": "[3]", "result": "> 400", "unit": "µM"}, {"measurement": "IC50", "setting": "[4]", "result": "> 400", "unit": "µM"}]}
{"molecule": "COc1cc(/C=C/C(=O)O)cc(OC)c1O", "note": "[SINAPINATE]", "values": [{"measurement": "IC50", "setting": "[3]", "result": 39.2, "unit": "µM"}, {"measurement": "IC50", "setting": "[4]", "result": 28, "unit": "µM"}]}
{"molecule": "COc1ccc(/C=C/C(=O)NCCc2c[nH]c3ccc(O)cc23)cc1O", "values": [{"measurement": "inhibition", "setting": "[1]", "result": 7, "unit": "%"}, {"measurement": "inhibition", "setting": "[2]", "result": 8, "unit": "%"}]}
{"molecule": "COc1ccc(/C=C/C(=O)NCCc2c[nH]c3ccc(O)cc23)cc1", "values": [{"measurement": "inhibition", "setting": "[1]", "result": 21.3, "unit": "%"}, {"measurement": "inhibition", "setting": "[2]", "result": 6.5, "unit": "%"}]}
{"molecule": "O=C(/C=C/c1ccccc1)NCCc1c[nH]c2ccc(O)cc12", "values": [{"measurement": "inhibition", "setting": "[1]", "result": 18.2, "unit": "%"}, {"measurement": "inhibition", "setting": "[2]", "result": 8.2, "unit": "%"}]}
{"molecule": "O=C(O)/C=C/c1ccc(O)c(O)c1", "note": "[CAFFEIC ACID]", "values": [{"measurement": "IC50", "setting": "[3]", "result": "> 400", "unit": "µM"}]}
